Results taken from patent US10407467B2, “Polymyxin derivatives and their use in combination therapy together with different antibiotics” (priority 2013, dated 2019).
Counter-ions that a name gives are not always drawn. Like-named read-outs stand apart in the source and are kept apart here. Bridge positions count the residues as written; N and C are the ends. Square brackets hold non-standard residues; d marks the D form. Peptide text beside a SMILES is read from it. * marks the point of attachment. ξ: configuration not given here. X18 = O=C([C@H]1CC[C@H](O)CC1)*; Thr(3ξ) = CC(O)[C@H](N)C(=O)O; Dab = NCC[C@H](N)C(=O)O; X23 = O=C(CCCN1CCOCC1)*

Experiments:
Type in all cases: cell-based
Escherichia coli = assay: MIC, sole activity (no second agent); conditions: for MIC: Escherichia coli, Table 7F, second agent none
Protocol: (§1) To evaluate the potency and spectrum of the compounds both alone and in combination with another agent, susceptibility testing was performed against up to four strains of each of the four Gram negative pathogens, Escherichia coli, Pseudomonas aeruginosa, Klebsiella pneumoniae and Acinetobacter baumannii.
(§2) The inoculum was prepared by making a direct suspension of isolated colonies (selected from an 18-24 hour Mueller-Hinton agar plate) adjusted to the 0.5 McFarland standard.
(§3) The assays were performed in duplicate.
(§4) In cases where the duplicate values varied by less than 2-fold, the lower of the two values is reported. If a variation of greater than 2-fold was observed, the assay was considered non-valid. Several of the compounds were subjected to multiple tests, and where this is the case, the MIC reflects the modal value obtained.
(§5) MICs were determined as described herein, except that a different supplier of Cation-adjusted MHB was used. […] Values are reported relative to Polymyxin B.

Pseudomonas aeruginosa [1] = assay: MIC, sole activity (no second agent)
Protocol: as §1, §2, §3, §4, §5

Acinetobacter baumannii = assay: MIC, sole activity (no second agent); conditions: for MIC A. baumannii ATCC BAA-747 / MIC A. baumannii NCTC 13424: Table 6A, no second agent, different supplier of Cation-adjusted MHB
Protocol: as §1, §2, §3, §4, §5

Klebsiella pneumoniae [2] = assay: MIC, sole activity (no second agent); conditions: for MIC: Klebsiella pneumoniae, Table 7F, second agent none
Protocol: as §1, §2, §3, §4, §5

Pseudomonas aeruginosa [3] = assay: MIC, compound in combination with a second agent (broth microdilution); conditions: 1:1 (wt:wt) combination with Rifampicin; MIC = total drug concentration; strain CCUG 59626
Protocol: as §1
(§6) Ratios of components in a combination, such as 1:1, refers to a weight to weight ratio. The minimum inhibitory concentration (MIC) refers to the total drug concentration (e.g. test compound plus second agent, such as Rifampicin).
as §2, §3, §4
(§7) The minimum inhibitory concentration refers to the total drug concentration (e.g. test compound plus Rifampicin). The compounds are used at equal mass within the combination. The weight refers to the mass of compound as used, for example the Example Compounds are used in their TFA or sulphate salt forms.
(§8) MICs refer to the total drug concentration. Thus, where a 1:1 combination is used, this is the amount of the test compound plus the second agent. For comparison, the MIC values for the second agent alone are also given.

Klebsiella pneumoniae [4] = assay: as above; conditions: 1:1 (wt:wt) combination with Rifampicin, MIC = total drug concentration; for MIC K. pneumoniae ATCC-BAA-2146: strain ATCC-BAA-2146; for MIC K. pneumoniae CCUG-59348: strain CCUG-59348; for MIC K. pneumoniae NCTC 13438: strain NCTC 13438
Protocol: as §1, §6, §2, §3, §4, §7, §8

[5] = Table 6A, no second agent, different supplier of Cation-adjusted MHB
[6] = in the absence of Rifampicin, strain ATCC25922
[7] = in the absence of Rifampicin, strain ATCC27853
[8] = in the absence of Rifampicin, strain ATCC 4352

Row | Compound | MIC E. coli ATCC25922 (Escherichia coli; [5]) | MIC E. coli NCTC 13441 (Escherichia coli; [5]) | MIC P. aeruginosa ATCC 27853 (Pseudomonas aeruginosa [1]; [5]) | MIC P. aeruginosa CCUG 59347 (Pseudomonas aeruginosa [1]; [5]) | MIC A. baumannii ATCC BAA-747 (Acinetobacter baumannii) | MIC A. baumannii NCTC 13424 (Acinetobacter baumannii) | MIC K. pneumoniae ATCC 4352 (Klebsiella pneumoniae [2]; [5]) | MIC K. pneumoniae ATCC BAA-2146 (Klebsiella pneumoniae [2]; [5]) | further results
1 | Cis-4-Octyl piperidine-2- carbonyl polymyxin B nonapeptide. Isomer 2 [Example A44] | 2 micrograms/mL | 2 micrograms/mL | 1 micrograms/mL | 2 micrograms/mL | 2 micrograms/mL | 4 micrograms/mL | 2 micrograms/mL |  | 
2 | CC(C)C[C@@H]1NC(=O)[C@@H](Cc2ccccc2)NC(=O)[C@H](CCN)NC(=O)[C@@H](NC(=O)[C@H](CCN)NC(=O)[C@@H](NC(=O)[C@H]2CC[C@H](O)CC2)C(C)O)CCNC(=O)[C@H](C(C)O)NC(=O)[C@H](CCN)NC(=O)[C@H](CCN)NC1=O (stereo partly drawn) [Example 25, trans-4-hydroxycyclohexane carbonyl polymyxin B nonapeptide] (X18-[Thr(3ξ)][Dab][Dab][Dab][dF]L[Dab][Dab][Thr(3ξ)]; lactam 3-C) |  |  |  |  |  |  |  |  | MIC E. coli ATCC25922 (Escherichia coli; [6]): 8 micrograms/mL; MIC P. aeruginosa ATCC 27853 (Pseudomonas aeruginosa [1]; [7]): 0.125 micrograms/mL; MIC K. pneumoniae ATCC 4352 (Klebsiella pneumoniae [2]; [8]): 4 micrograms/mL; MIC P. aeruginosa CCUG 59626 (Pseudomonas aeruginosa [3]): 0.5 micrograms/mL; MIC K. pneumoniae ATCC-BAA-2146 (Klebsiella pneumoniae [4]): 1 micrograms/mL; MIC K. pneumoniae CCUG-59348 (Klebsiella pneumoniae [4]): 8 micrograms/mL; MIC K. pneumoniae NCTC 13438 (Klebsiella pneumoniae [4]): 2 micrograms/mL
3 | Piperidine-2-carbonyl polymyxin B nonapeptide. Isomer 1 [Example A25] | >8 micrograms/mL | >8 micrograms/mL | 2 micrograms/mL | 4 micrograms/mL | >8 micrograms/mL | 8 micrograms/mL | 8 micrograms/mL | >8 micrograms/mL | 
4 | (2S)-Morpholine-2-carbonyl polymyxin B nonapeptide [Example A40] | 8 micrograms/mL | 4 micrograms/mL | 2 micrograms/mL | 4 micrograms/mL | >8 micrograms/mL | >8 micrograms/mL | 4 micrograms/mL | 8 micrograms/mL | 
5 | CC[C@H]1OC(=O)[C@H](C)[C@@H](O[C@H]2C[C@@](C)(OC)[C@@H](O)[C@H](C)O2)[C@H](C)[C@@H](O[C@@H]2O[C@H](C)C[C@H](N(C)C)[C@H]2O)[C@](C)(O)C[C@@H](C)CN(C)[C@H](C)[C@@H](O)[C@]1(C)O [Azithromycin, reference compound] |  |  |  |  |  |  |  |  | MIC (Escherichia coli; NCTC13441, E. coli NCTC 13441, read-out: MIC E. coli NCTC 13441): > 32 µg/mL; MIC (Escherichia coli; E. coli ATCC25922, read-out: MIC E. coli ATCC25922): 1 µg/mL; MIC (Pseudomonas aeruginosa [1]; Pseudomonas aeruginosa, ATCC10145, Table 7F, P. aeruginosa ATCC 10145, second agent none, read-out: MIC P. aeruginosa ATCC 10145): 32 µg/mL; MIC (Acinetobacter baumannii; Acinetobacter baumannii, NCTC13424, Table 7F, A. baumannii NCTC 13424, second agent none): 8 µg/mL; MIC (Klebsiella pneumoniae [2]; CCUG59349, K. pneumoniae CCUG 59349, read-out: MIC K. pneumoniae CCUG 59349): > 32 µg/mL; MIC (Klebsiella pneumoniae [2]; K. pneumoniae ATCC4352, read-out: MIC K. pneumoniae ATCC4352): 0.25 µg/mL
6 | [3(R,S)-3-Amino-3- cyclohexanepropanoyl]-L- Arg- polymyxin B nonapeptide [Example A23] | >8 micrograms/mL | >8 micrograms/mL | 8 micrograms/mL | >8 micrograms/mL | 2 micrograms/mL | 4 micrograms/mL | >8 micrograms/mL | >8 micrograms/mL | 
7 | CCCCCCC(O)C(=O)N[C@H](C(=O)N[C@@H](CCN)C(=O)N[C@H]1CCNC(=O)[C@H](C(C)O)NC(=O)[C@H](CCN)NC(=O)[C@H](CCN)NC(=O)[C@H](CC(C)C)NC(=O)[C@@H](CC(C)C)NC(=O)[C@H](CCN)NC1=O)C(C)O (mixture of isomers) [Example 19, 2-(RS)-2- Hydroxyoctanoyl polymyxin E nonapeptide] |  |  |  |  |  |  |  |  | MIC E. coli ATCC25922 (Escherichia coli; [6]): 8 micrograms/mL; MIC P. aeruginosa ATCC 27853 (Pseudomonas aeruginosa [1]; [7]): 4 micrograms/mL; MIC K. pneumoniae ATCC 4352 (Klebsiella pneumoniae [2]; [8]): 8 micrograms/mL; MIC P. aeruginosa CCUG 59626 (Pseudomonas aeruginosa [3]): 1 micrograms/mL; MIC K. pneumoniae ATCC-BAA-2146 (Klebsiella pneumoniae [4]): 2 micrograms/mL; MIC K. pneumoniae CCUG-59348 (Klebsiella pneumoniae [4]): 2 micrograms/mL; MIC K. pneumoniae NCTC 13438 (Klebsiella pneumoniae [4]): 0.5 micrograms/mL
8 | Piperidine-1-ylethanoyl polymyxin B nonapeptide [Example A2] | 4 micrograms/mL | >8 micrograms/mL | 2 micrograms/mL | 4 micrograms/mL | >8 micrograms/mL | >8 micrograms/mL | 8 micrograms/mL |  | 
9 | D-Leu-polymyxin B nonapeptide [Example A42] | 2 micrograms/mL | 1 micrograms/mL | 0.5 micrograms/mL | 2 micrograms/mL | 4 micrograms/mL | 4 micrograms/mL | 2 micrograms/mL | 1 micrograms/mL | 
10 | (2S)-piperazine-2-carbonyl polymyxin B nonapeptide [Example A49] | 4 micrograms/mL | 4 micrograms/mL | 2 micrograms/mL | 4 micrograms/mL | >8 micrograms/mL | >8 micrograms/mL | 2 micrograms/mL | >8 micrograms/mL | 
11 | 3-(RS)-3-amino octanoyl polymyxin B nonapeptide. Isomer 1 [Example A32] | 0.5 micrograms/mL | 0.5 micrograms/mL | 0.5 micrograms/mL | 1 micrograms/mL | 2 micrograms/mL | 2 micrograms/mL | 0.5 micrograms/mL | 0.25 micrograms/mL | 
12 | CC(C)C[C@@H]1NC(=O)[C@@H](Cc2ccccc2)NC(=O)[C@H](CCN)NC(=O)[C@@H](NC(=O)[C@H](CCN)NC(=O)[C@@H](NC(=O)CCCN2CCOCC2)C(C)O)CCNC(=O)[C@H](C(C)O)NC(=O)[C@H](CCN)NC(=O)[C@H](CCN)NC1=O (stereo partly shown) [Example 14, 4- Morpholinylbutanoyl polymyxin B nonapeptide, trifluoroacetate salt] (X23-[Thr(3ξ)][Dab][Dab][Dab][dF]L[Dab][Dab][Thr(3ξ)]; lactam 3-C) |  |  |  |  |  |  |  |  | MIC E. coli ATCC25922 (Escherichia coli; [6]): 4 micrograms/mL; MIC P. aeruginosa ATCC 27853 (Pseudomonas aeruginosa [1]; [7]): 1 micrograms/mL; MIC K. pneumoniae ATCC 4352 (Klebsiella pneumoniae [2]; [8]): >32 micrograms/mL; MIC P. aeruginosa CCUG 59626 (Pseudomonas aeruginosa [3]): 0.5 micrograms/mL; MIC K. pneumoniae ATCC-BAA-2146 (Klebsiella pneumoniae [4]): 2 micrograms/mL; MIC K. pneumoniae CCUG-59348 (Klebsiella pneumoniae [4]): 16 micrograms/mL
